{
  "source": "the Deep4Chem optical property database",
  "assay": "photoluminescence quantum yield (fraction); solvent given as SMILES",
  "data": [
    {"smiles": "CC(C)=CCN1C(=O)c2cccc3c2c(cc2oc(C)nc23)C1=O", "values": [
      {"measurement": "photoluminescence quantum yield", "setting": "in CCO", "result": 0.011}
    ]},
    {"smiles": "C(=C\\c1cc(/C=C/c2ccc(N(c3ccccc3)c3ccccc3)cc2)nc(/C=C/c2ccc(N(c3ccccc3)c3ccccc3)cc2)n1)/c1ccc(N(c2ccccc2)c2ccccc2)cc1", "values": [
      {"measurement": "photoluminescence quantum yield", "setting": "in ClCCl", "result": 0.56}
    ]},
    {"smiles": "CC1=[N+]2C(=C(c3ccccc3)c3c4c5ccccc5c5ccccc5c4c(C)n3[B-]2(F)F)c2c1c1ccccc1c1ccccc21", "values": [
      {"measurement": "photoluminescence quantum yield", "setting": "in CCCCCC", "result": 0.94}
    ]},
    {"smiles": "CCn1c2ccccc2c2cc(/C=C3\\C(=O)c4ccccc4S3(=O)=O)ccc21", "values": [
      {"measurement": "photoluminescence quantum yield", "setting": "in C1CCOC1", "result": 0.029},
      {"measurement": "photoluminescence quantum yield", "setting": "in C1COCCO1", "result": 0.025},
      {"measurement": "photoluminescence quantum yield", "setting": "in CC#N", "result": 0.023},
      {"measurement": "photoluminescence quantum yield", "setting": "in CC(C)=O", "result": 0.042},
      {"measurement": "photoluminescence quantum yield", "setting": "in CCOC(C)=O", "result": 0.039},
      {"measurement": "photoluminescence quantum yield", "setting": "in CN(C)C=O", "result": 0.033},
      {"measurement": "photoluminescence quantum yield", "setting": "in CO", "result": 0.003},
      {"measurement": "photoluminescence quantum yield", "setting": "in CS(C)=O", "result": 0.083},
      {"measurement": "photoluminescence quantum yield", "setting": "in Cc1ccccc1", "result": 0.014},
      {"measurement": "photoluminescence quantum yield", "setting": "in ClC(Cl)Cl", "result": 0.04},
      {"measurement": "photoluminescence quantum yield", "setting": "in ClCCl", "result": 0.04}
    ]},
    {"smiles": "CC(C)(C)OC(=O)NCCCC(=O)OCc1ccc2c3cccc4cccc(c5cccc1c52)c43", "values": [
      {"measurement": "photoluminescence quantum yield", "setting": "in CCO", "result": 0.87}
    ]},
    {"smiles": "Cc1ccsc1-c1ccc(-c2ccc(-c3sccc3C)s2)s1", "values": [
      {"measurement": "photoluminescence quantum yield", "setting": "in CCC(C)C", "result": 0.19}
    ]},
    {"smiles": "Cc1cc2nc3cc(C)c(N)cc3[n+](-c3ccccc3)c2cc1N", "values": [
      {"measurement": "photoluminescence quantum yield", "setting": "in CCO", "result": 0.292},
      {"measurement": "photoluminescence quantum yield", "setting": "in O", "result": 0.058}
    ]},
    {"smiles": "O=Cc1ccc(C#CC(C#Cc2ccc(C=O)s2)=Cc2ccc(C=C(C#Cc3ccc(C=O)s3)C#Cc3ccc(C=O)s3)cc2)s1", "values": [
      {"measurement": "photoluminescence quantum yield", "setting": "in ClC(Cl)Cl", "result": 0.08}
    ]},
    {"smiles": "CCC1=C(C2=C(C3=C(CC)S(=O)(=O)c4cc(-c5ccc(CO)cc5)ccc43)C(F)(F)C(F)(F)C2(F)F)c2ccc(-c3ccc(CO)cc3)cc2S1(=O)=O", "values": [
      {"measurement": "photoluminescence quantum yield", "setting": "in C1COCCO1", "result": 0}
    ]},
    {"smiles": "O=c1c2ccccc2oc2cc(N3c4ccccc4C4(c5ccccc5Oc5ccccc54)c4ccccc43)ccc12", "values": [
      {"measurement": "photoluminescence quantum yield", "setting": "in Cc1ccccc1", "result": 0.77}
    ]},
    {"smiles": "CC(C)[Si](C#Cc1c2nc3c(nc2c(C#C[Si](C(C)C)(C(C)C)C(C)C)c2nc4ccccc4nc12)C1c2ccccc2C3c2ccccc21)(C(C)C)C(C)C", "values": [
      {"measurement": "photoluminescence quantum yield", "setting": "in CCCCCC", "result": 0.21}
    ]},
    {"smiles": "CCNc1cc2c(cc1C)C(c1ccccc1C(=O)O)=C1CCCC(/C=C/C3=[N+](C)c4ccccc4C3(C)C)=C1O2", "values": [
      {"measurement": "photoluminescence quantum yield", "setting": "in CC#N", "result": 0.32},
      {"measurement": "photoluminescence quantum yield", "setting": "in CCO", "result": 0.56},
      {"measurement": "photoluminescence quantum yield", "setting": "in CO", "result": 0.55},
      {"measurement": "photoluminescence quantum yield", "setting": "in ClC(Cl)Cl", "result": 0.54}
    ]},
    {"smiles": "Oc1c(-c2cccs2)cccc1-c1nc2ccccc2s1", "values": [
      {"measurement": "photoluminescence quantum yield", "setting": "in CCO", "result": 0.0075},
      {"measurement": "photoluminescence quantum yield", "setting": "in ClCCl", "result": 0.017},
      {"measurement": "photoluminescence quantum yield", "setting": "in O", "result": 0.01}
    ]},
    {"smiles": "CC1(C)c2ccccc2N(c2ccc3c(c2)S(=O)(=O)c2cc(N4c5ccccc5C(C)(C)c5ccccc54)ccc2C3(C)C)c2ccccc21", "values": [
      {"measurement": "photoluminescence quantum yield", "setting": "in O=P(c1ccccc1)(c1ccccc1)c1ccccc1Oc1ccccc1P(=O)(c1ccccc1)c1ccccc1", "result": 0.62}
    ]},
    {"smiles": "Cc1cccc(-c2c3ccccc3cc3ccccc23)n1", "values": [
      {"measurement": "photoluminescence quantum yield", "setting": "in ClCCl", "result": 0.48}
    ]},
    {"smiles": "CCn1c(-c2ccc(-c3ccc(-c4ccc(-c5n(CC)c6cc(C)ccc6[n+]5CC)cc4)cc3)cc2)[n+](CC)c2ccc(C)cc21", "values": [
      {"measurement": "photoluminescence quantum yield", "setting": "in O", "result": 0.72}
    ]},
    {"smiles": "C=CC1CN2CCC1CC2[C@@H](OCc1ccccc1)c1ccnc2ccc(O)cc12", "note": "(some centres not stated)", "values": [
      {"measurement": "photoluminescence quantum yield", "setting": "in C1CCOC1", "result": 0.12},
      {"measurement": "photoluminescence quantum yield", "setting": "in CC#N", "result": 0.016},
      {"measurement": "photoluminescence quantum yield", "setting": "in CCCC#N", "result": 0.021},
      {"measurement": "photoluminescence quantum yield", "setting": "in Cc1ccccc1", "result": 0.06},
      {"measurement": "photoluminescence quantum yield", "setting": "in ClCCl", "result": 0.035}
    ]},
    {"smiles": "CCN(CC)c1ccc2cc(/C=C/C3=C4CC/C(=C\\c5cc6ccc(N(CC)CC)cc6oc5=O)C4=[O+][B-](F)(F)O3)c(=O)oc2c1", "values": [
      {"measurement": "photoluminescence quantum yield", "setting": "in C1COCCO1", "result": 0.3},
      {"measurement": "photoluminescence quantum yield", "setting": "in CC(C)=O", "result": 0.18},
      {"measurement": "photoluminescence quantum yield", "setting": "in CCOC(C)=O", "result": 0.2},
      {"measurement": "photoluminescence quantum yield", "setting": "in CS(C)=O", "result": 0.0068},
      {"measurement": "photoluminescence quantum yield", "setting": "in Cc1ccccc1", "result": 0.4},
      {"measurement": "photoluminescence quantum yield", "setting": "in ClC(Cl)Cl", "result": 0.22}
    ]},
    {"smiles": "O=C1c2cc(F)ccc2-c2cnccc21", "values": [
      {"measurement": "photoluminescence quantum yield", "setting": "in CC#N", "result": 0.015},
      {"measurement": "photoluminescence quantum yield", "setting": "in CCCCCC", "result": 0.0017},
      {"measurement": "photoluminescence quantum yield", "setting": "in CCOC(C)=O", "result": 0.02},
      {"measurement": "photoluminescence quantum yield", "setting": "in Cc1ccccc1", "result": 0.012},
      {"measurement": "photoluminescence quantum yield", "setting": "in ClCCl", "result": 0.018}
    ]},
    {"smiles": "Nc1ccc2[nH]ncc2c1", "values": [
      {"measurement": "photoluminescence quantum yield", "setting": "in C1CCCCC1", "result": 0.14},
      {"measurement": "photoluminescence quantum yield", "setting": "in CC#N", "result": 0.18},
      {"measurement": "photoluminescence quantum yield", "setting": "in CO", "result": 0.37},
      {"measurement": "photoluminescence quantum yield", "setting": "in O", "result": 0.57}
    ]},
    {"smiles": "CC1=C(c2ccccc2)Oc2cc3nc4ccccc4nc3c3cccc1c23", "values": [
      {"measurement": "photoluminescence quantum yield", "setting": "in ClCCl", "result": 0.45}
    ]},
    {"smiles": "C[n+]1cc2ccc3c[n+](C)c4ccccc4c3c2c2ccccc21", "values": [
      {"measurement": "photoluminescence quantum yield", "setting": "in CC#N", "result": 0.066}
    ]},
    {"smiles": "C(=C\\c1nc2ccccc2s1)/c1ccccc1", "values": [
      {"measurement": "photoluminescence quantum yield", "setting": "in C1CCCCC1", "result": 0.04},
      {"measurement": "photoluminescence quantum yield", "setting": "in CO", "result": 0.007}
    ]},
    {"smiles": "COc1ccc(-c2nc(-c3ccc(OC)cc3)c(-c3ccc(OC)cc3)[nH]2)cc1", "values": [
      {"measurement": "photoluminescence quantum yield", "setting": "in CO", "result": 0.2}
    ]},
    {"smiles": "FC(F)(F)c1ccc(/C=C/c2nc(/C=C/c3ccc(N(c4ccccc4)c4ccccc4)cc3)cc(/C=C/c3ccc(N(c4ccccc4)c4ccccc4)cc3)n2)cc1", "values": [
      {"measurement": "photoluminescence quantum yield", "setting": "in ClCCl", "result": 1}
    ]},
    {"smiles": "CC1(C)CC(/N=C/c2ccc3ccc4cccc5ccc2c3c45)CC(C)(C)N1[O]", "values": [
      {"measurement": "photoluminescence quantum yield", "setting": "in C1CCCCC1", "result": 0.11},
      {"measurement": "photoluminescence quantum yield", "setting": "in CC#N", "result": 0.01},
      {"measurement": "photoluminescence quantum yield", "setting": "in CO", "result": 0.03},
      {"measurement": "photoluminescence quantum yield", "setting": "in ClC(Cl)Cl", "result": 0.02}
    ]}
  ]
}
